According to US6878689B2, “Preventives or remedies for heart failure” (Kaken Pharmaceutical Co., Ltd., priority 2000, dated 2005):
Where a SMILES comes first, the peptide text is derived from it. [ ]: non-standard residue; d: D form. d2Nal = N[C@H](Cc1ccc2ccccc2c1)C(=O)O

Tested on: dogs with occluded anterior descending coronary artery
Assay: Effect of intravenously administered pralmorelin on cardiac function of dog with anterior descending coronary artery occlusion
Type: in vivo
Settings: 100 μg/kg i.v.
Procedure: [Test Example 3] Effect of Intravenously Administered Pralmorelin on the Cardiac Function of Dog with a Model of Anterior Descending Coronary Artery Occlusion
Using a dog model of acute contractile dysfunction caused by occlusion of the anterior descending coronary artery, the inventors studied the cardiotonic action of pralmorelin.
The action of pralmorelin on the cardiac dysfunction deteriorated by occlusion of the coronary artery was evaluated by various hemodynamic parameters, cardiac output (CO), stroke volume (SV), maximal positive dP/dt of left ventricular pressure (+dP/dtmax), ejection fraction (EF), mean blood pressure (MBP), heart rate (HR), total peripheral resistance (TPR) and double product (RPP) as an index of myocardial oxygen consumption. • 1. Test Materials and Method • 1) Test Substance and Reagents • (1) Control
Pralmorelin dihydrochloride (hereunder referred to as KP-102) (prepared by the method described in WO 9304081) was dissolved in distilled water to prepare a 0.5 mg/mL solution. • (3) Reagents
In the experiment, adult beagles of either sex (weighing 9-11 kg) purchased from Nihon Nosan Kogyo K.K. (Kanagawa, Japan) were used. After arrival, the animals were allowed to eat a solid meal (CD-5, CLEA Japan, Inc. or Labo D Stock, Nark Corp.) and drink water in a room at a temperature of 20±2° C. and at a humidity of 55±15% under illumination for 12 hours a day (from 7:00 to 19:00); the animals were kept under these conditions for at least one week before use. • 3) Method of Measurement
Anesthesia was introduced by intravenous administration of pentobarbital (30 mg/kg) and in order to maintain anesthesia, pentobarbital (5-6 mg/kg/hr) was injected continuously by means of an infusion pump (FP-W-100, Toyo Sangyo) through a polyethylene cannula retained in the right cephalic vein. The endotracheal cannula was inserted and the chest was opened at the left fourth intercostal space under artificial respiration in a tidal volume of 20 mL/kg at a rate of 18 breaths/min with an artificial respirator (SN-480-3 of Shinano Seisakusho). The left anterior descending coronary artery was carefully detached from the site of origin over a length of 1-2 cm and an occluding thread was passed through.
The chest was opened at the left fifth intercostal space and a 5-segment conductance catheter (CCS-108-DA, Unique Medical) was inserted from the cardiac apex so that all electrodes would be placed in the left ventricle. A catheter equipped with a 5 Fr microtip pressure transducer (pressure transducer catheter, Model MPC-500, MILLAR) was inserted into the left ventricle through the left carotid artery. The conductance catheter and the pressure transducer catheter inserted into the left ventricle were connected to a built-in amplifier in a ventricular volume-measuring instrument (Integral 3; VPR-1002, Unique Medical) and the changes in the left ventricular pressure (LVP) and the volume of the left ventricle were measured simultaneously. To determine the mean blood pressure (MBP), blood pressure was measured via a blood pressure amplifier (AP641G, Nihon Kohden) from the 5 Fr pressure transducer catheter inserted into the left femoral artery. Heart rate (HR) was measured with a cardiotachometer (AT-601G, Nihon Kohden) from the pulse waves of blood pressure.
The chest was opened again at the fourth intercostal space and in order to measure the cardiac output (CO(EMF)) (CO as determined by an electromagnetic blood flowmeter based method), a probe connected to an electromagnetic blood flowmeter (MFV-2100, Nihon Kohden) was fitted at the site of origin of the aorta. A spiral electrode was put in the ischemic region that occurred due to the occlusion of coronary artery and a surface electrocardiogram was recorded. A Doppler probe was fitted on the left anterior descending coronary artery and the blood flow was determined with a Doppler blood flowmeter (PD-20, Crystal Biotech). […]

Compound: C[C@H](NC(=O)[C@@H](Cc1ccc2ccccc2c1)NC(=O)[C@@H](C)N)C(=O)N[C@@H](Cc1c[nH]c2ccccc12)C(=O)N[C@H](Cc1ccccc1)C(=O)N[C@@H](CCCCN)C(N)=O [KP-102, D-alanyl-3-(naphthalen-2-yl)-D-alanyl-L-alanyl-L-tryptophyl-D-phenylalanyl-L-lysinamide] (H-[dA][d2Nal]AW[dF]K-NH2)
- change in LVEDP: Neither of the control and KP-102 groups showed changes in LVPsys and LVEDP
- change in LVPsys: Neither of the control and KP-102 groups showed changes in LVPsys and LVEDP
- change in double product (RPP), index of myocardial oxygen consumption: Neither group experienced a change in RPP
- change in heart rate (HR): Neither of MBP and HR changed
- change in mean blood pressure (MBP): Neither of MBP and HR changed
- change in −dP/dtmax in comparison with control group: no significant change
- increase in stroke volume (SV) from baseline before administration (5 minutes after the administration, n=5, p<0.05 vs control): 5%
- maximum increase in cardiac output (CO) from baseline before administration (10 minutes after the administration, n=5, p<0.05 vs control): 7%
- increase in +dP/dtmax from baseline before administration (10 minutes after the administration, p<0.05 vs control for first 20 minutes): 7%
- maximal increase in ejection fraction (EF) (in 10 minutes, significant vs control): 10%
- change in total peripheral resistance (TPR) (p<0.05 vs control): dropped following the administration
